According to publication PMC10246557, “Kinetic and inhibition studies on human Jumonji-C (JmjC) domain-containing protein 5” (RSC Chemical Biology, 2023):
Several values for one entry are separate records, joined by “and”; a condition that tells them apart may be missing. Equal values may be shown once. Read-outs that look alike come from different tables or passages of the source.

Legend:
human KDM4E [1] = molecular target: T1, human KDM4E (Homo sapiens, UniProt B2RXH2); test: KDM4E SPE-MS turnover and kinetic assay (H3 K9(me3) peptide demethylation); format: biochemical; settings: for KDM4E (%): substrate demethylation with the compound as cosubstrate: absence of 2OG, KDM4E 0.15 μM, 2OG derivative 330 μM, Fe(II) 50 μM, ARTAQTARK(me3)STGGIA 10.0 μM
T1 sequence (B2RXH2 1-506): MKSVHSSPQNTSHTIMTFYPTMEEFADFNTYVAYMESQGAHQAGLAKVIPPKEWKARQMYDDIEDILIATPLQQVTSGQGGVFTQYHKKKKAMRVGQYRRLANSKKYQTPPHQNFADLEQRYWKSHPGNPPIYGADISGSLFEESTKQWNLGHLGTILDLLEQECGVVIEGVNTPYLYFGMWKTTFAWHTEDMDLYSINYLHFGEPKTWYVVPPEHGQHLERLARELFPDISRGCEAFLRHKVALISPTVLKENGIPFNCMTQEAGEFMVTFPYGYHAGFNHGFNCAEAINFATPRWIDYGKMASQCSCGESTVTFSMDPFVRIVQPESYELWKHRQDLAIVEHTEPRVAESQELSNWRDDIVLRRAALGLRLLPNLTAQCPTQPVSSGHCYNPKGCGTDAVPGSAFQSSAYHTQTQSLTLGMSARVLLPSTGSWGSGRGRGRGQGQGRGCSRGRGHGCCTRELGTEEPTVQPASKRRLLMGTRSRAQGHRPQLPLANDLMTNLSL
Procedure: KDM4E turnover and inhibition assays were performed as reported using recombinant human KDM4E and a histone 3 K9(me3) derivative (i.e. […](me3)STGGIA)[41] as substrate.[95]
Supplementary Figure S3. Rates of KDM4E-catalyzed Nε-trimethyl lysine demethylations of a histone 3- […]
Maximum velocities (vapp ) and Michaelis […]
catalyzed Nε-trimethyl lysine demethylation of the histone 3 K9(me3)-derived peptide […]
(me3)STGGIA2 by SPE-MS as described;3 note that mono-, di-, and tri-demethylated product […]
buffer (50 mM MES, pH 7.0, 20 °C). Measurement times were normalized to the first sample injection analyzed […]
(§1) Data are shown as the mean of three independent runs (n = 3; mean ± SD).
(a) Time course of the KDM4E-catalyzed Nε-trimethyl lysine demethylation reaction of the […]

human AspH [2] = settings: absence of 2OG, AspH 0.1 μM, 2OG derivative 330 μM, Fe(II) 50 μM, hFX-CP101–119 2.0 μM, cited from earlier work
human JMJD5 [3] = molecular target: T2, human JMJD5 (Homo sapiens, UniProt Q8N371); test: SPE-MS JMJD5 inhibition assay; format: biochemical; settings: JMJD5 0.15 μM, 2OG 2.0 μM, Fe(II) 2.0 μM, LAA 100 μM, RPS6_128–148 2.0 μM; read-out: IC50 JMJD5
T2 construct: made in house; host or cells: Escherichia coli BL21(DE3)
Procedure: Solutions of the small-molecules (100% DMSO) were dry dispensed across 384 well polypropylene V-bottom assay microplates (Greiner) in an approximately three-fold and 11-point dilution series (100 μM inhibitor top concentration; the final DMSO assay concentration was kept constant at 0.5%v/v) using an ECHO 550 acoustic dispenser (Labcyte). […] Each reaction was performed in technical duplicates in adjacent wells of the assay plates; additionally, assays were performed in two independent duplicates on different days using different inhibitor solutions.
The Enzyme Mixture (25 μL per well), containing 0.3 μM His6-thioredoxin-tagged JMJD5 in buffer (50 mM MOPS, pH 7.5), was dispensed across the inhibitor-containing 384-well plates with a multidrop dispenser (ThermoFischer Scientific) at 20 °C under an ambient atmosphere. The plates were subsequently centrifuged (1000 rpm, 5 s) and incubated for 15 min at 20 °C. […] The plates were centrifuged (1000 rpm, 5 s) and, after incubating for 30 min, the enzyme reaction was stopped by the addition of 10%v/v aqueous formic acid (5 μL per well). The plates were then centrifuged (1000 rpm, 30 s) and analyzed by MS.
Z′-Factors were calculated according to the cited literature using Microsoft Excel.[61]

human JMJD5 [4] = molecular target: T2, human JMJD5; test: SPE-MS JMJD5 turnover and kinetic assay (RPS6_128–148 hydroxylation); format: biochemical; settings: for JMJD5 (%): RPS6_128–148 hydroxylation with the compound as cosubstrate: absence of 2OG, JMJD5 0.15 μM, 2OG derivative 400 μM, Fe(II) 20 μM, RPS6_128–148 2.0 μM
Procedure: JMJD5 turnover assays for time course and kinetic experiments were performed in 96-well polypropylene assay plates (Greiner) with either […] total reaction volume using the concentrations given in the manuscript or ESI, ^† and JMJD5-catalysed substrate hydroxylation was directly monitored using SPE-MS. […] Assay samples were aspirated under vacuum for 0.6 s and loaded onto a C4 solid phase extraction (SPE) cartridge. After loading, the C4 SPE cartridge was washed with 0.1%v/v aqueous formic acid to remove non-volatile buffer salts (5.5 s, 1.5 mL min^−1). The peptide was eluted from the SPE cartridge with 0.1%v/v aqueous formic acid in 80/20v/v acetonitrile/water into the mass spectrometer (5.5 s, 1.5 mL min^−1) and the SPE cartridge re-equilibrated with 0.1%v/v aqueous formic acid (0.5 s, 1.5 mL min^−1). The mass spectrometer was operated using the MassHunter Workstation B.08.00 software (Agilent), the mass spectrometer parameters were: capillary voltage (4000 V), nozzle voltage (1000 V), fragmentor voltage (365 V), gas temperature (280 °C), gas flow (13 L min^−1), sheath gas temperature (350 °C), sheath gas flow (12 L min^−1). […] Data were exported into Microsoft Excel and used to calculate the % conversion of the hydroxylation reaction using the equation: % conversion = 100 × (integral product peptide)/(integral substrate peptide + integral product peptide).
parameters (continues on the following two pages). Maximum velocities (vapp ) and Michaelis constants (Kapp)
of JMJD5 were determined in independent triplicates, monitoring the JMJD5-catalyzed hydroxylation of the
SPE-MS, as described (Experimental Section).
20 °C). Measurement times were normalized to the first sample injection analyzed after the addition of JMJD5 to
shown as the mean of three independent runs (n = 3; mean ± standard deviation, SD).
hexahydrate (20 μM, (NH4)2Fe(SO4)2·6H2O); and (b) hydroxylation rates used to determine kinetic parameters of
(1 picture or pasted object on this page, not shown here)
Maximum velocities (vapp ) and
Michaelis constants (Kapp) of JMJD5 were determined in independent triplicates for (1R)-3-
(carboxycarbonyl)cyclopentane-1-carboxylic acid (14), monitoring the JMJD5-catalyzed hydroxylation of the
as described (Experimental Section).
pH 7.5, 20 °C). Measurement times were normalized to the first sample injection analyzed after the addition of
as §1
to determine kinetic parameters of JMJD5 for 14.

human FIH [5] = settings: absence of 2OG, FIH 0.15 μM, 2OG derivative 330 μM, Fe(II) 50 μM, HIF-1α788–822 5.0 μM, cited from earlier work
human KDM4E [6] = molecular target: T1, human KDM4E; test: KDM4E SPE-MS inhibition assay; format: biochemical; settings: KDM4E 0.15 μM, peptide 10.0 μM, LAA 100 μM, FAS 10 μM, 2OG 10 μM
Procedure: KDM4E turnover and inhibition assays were performed as reported using recombinant human KDM4E and a histone 3 K9(me3) derivative (i.e. […](me3)STGGIA)[41] as substrate.[95] […]

human FIH [7] = tested on: human FIH; parameters: method as in ref 10 (ESI); settings: FIH 0.15 μM, HIF-1α788-822 5.0 μM, 2OG 10 μM; ref 10 (ESI); cited from earlier work
human AspH [8] = tested on: human AspH; parameters: method as in ref 9 (ESI); settings: AspH 0.05 μM, hFX-CP101-119 1.0 μM, 2OG 3.0 μM; ref 9 (ESI); cited from earlier work

T2 sequence (Q8N371 whole entry): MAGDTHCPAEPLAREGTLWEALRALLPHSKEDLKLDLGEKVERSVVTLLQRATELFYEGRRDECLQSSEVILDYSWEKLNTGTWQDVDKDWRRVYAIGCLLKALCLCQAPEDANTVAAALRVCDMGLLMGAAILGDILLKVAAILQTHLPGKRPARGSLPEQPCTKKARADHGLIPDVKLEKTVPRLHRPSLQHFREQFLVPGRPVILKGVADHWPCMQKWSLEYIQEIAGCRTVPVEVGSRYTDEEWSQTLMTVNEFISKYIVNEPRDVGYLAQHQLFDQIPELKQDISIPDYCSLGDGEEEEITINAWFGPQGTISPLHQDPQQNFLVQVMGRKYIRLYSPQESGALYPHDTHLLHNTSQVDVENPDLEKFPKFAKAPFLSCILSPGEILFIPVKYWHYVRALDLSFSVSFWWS

Row | Compound | KDM4E (%): substrate demethylation with the compound as cosubstrate (human KDM4E [1]) | AspH (%): substrate hydroxylation with the compound as cosubstrate (human AspH [2]) | IC50 (human JMJD5 [3]) | JMJD5 (%): RPS6_128–148 hydroxylation with the compound as cosubstrate (human JMJD5 [4]) | FIH (%): substrate hydroxylation with the compound as cosubstrate (human FIH [5]) | IC50 (human KDM4E [6]) | IC50 (human FIH [7]) | IC50 (human AspH [8]) | KDM4E (%): substrate demethylation with the compound as cosubstrate (human KDM4E [1]; listed as Entry 22) | AspH (%): substrate hydroxylation with the compound as cosubstrate (human AspH [2]; listed as Entry 22) | FIH (%): substrate hydroxylation with the compound as cosubstrate (human FIH [5]; listed as Entry 22) | fold less efficient KDM4E cosubstrate than 2OG (human KDM4E [1]) | KDM4E (%): substrate demethylation with the compound as cosubstrate (human KDM4E [1]; listed as Entry 2) | AspH (%): substrate hydroxylation with the compound as cosubstrate (human AspH [2]; listed as Entry 2) | JMJD5 (%): RPS6_128–148 hydroxylation with the compound as cosubstrate (human JMJD5 [4]; listed as Entry 2) | JMJD5-catalyzed RPS6_128–148 hydroxylation, time course (human JMJD5 [4]; after 50 min, 10 μM cosubstrate, 0.15 μM JMJD5, 10 μM Fe(II), 2.0 μM RPS6_128–148) | FIH (%): substrate hydroxylation with the compound as cosubstrate (human FIH [5]; listed as Entry 2) | KDM4E (%): substrate demethylation with the compound as cosubstrate (human KDM4E [1]; listed as Entry 13) | AspH (%): substrate hydroxylation with the compound as cosubstrate (human AspH [2]; listed as Entry 13) | FIH (%): substrate hydroxylation with the compound as cosubstrate (human FIH [5]; listed as Entry 13)
1 | 4-(2-naphthyl)methyl-2OG [2OG derivative 23] | < 1% | < 1% | > 50 µM | < 1% | < 1% | 6 to 7 µM and ~6.9 µM | 2.5 ± 0.1 µM |  |  |  |  |  |  |  |  |  |  |  |  | 
2 | 4-methyl-2OG [2OG derivative 8] | < 1% | ~ 10% | > 50 µM | ~ 10% | ~ 45% |  | > 50 µM | > 50 µM |  |  |  |  |  |  |  |  |  |  |  | 
3 | O=C(O)C(=O)C1CC[C@@H](C(=O)O)C1 (mixture of isomers) [2OG derivative 14, (1R)-3-(carboxycarbonyl)cyclopentane-1-carboxylic acid] |  |  |  |  |  | 27.9 ± 3.5 µM | > 50 µM |  | < 1% | ~ 15% | ~ 2% |  |  |  |  |  |  |  |  | 
4 | O=C(O)C(=O)C1C2C=CC(C2)C1C(=O)O (racemic) [2OG derivative 26] | < 1% | < 1% | > 50 µM | < 1% | < 1% | > 50 µM | > 50 µM |  |  |  |  |  |  |  |  |  |  |  |  | 
5 | CC(CC(=O)O)C(=O)C(=O)O (centres unmarked) [2OG derivative 1, 3-methyl-2OG] |  |  | > 50 µM |  |  | > 30 µM | > 50 µM | > 50 µM |  |  |  | ~7 fold | ~ 10% | > 95% | ~ 10% | ~20% | ~ 55% |  |  | 
6 | CC(C)(CC(=O)C(=O)O)C(=O)O [2OG derivative 9, 4,4-dimethyl-2OG] |  |  |  |  |  | > 30 µM | > 50 µM | ~0.3 µM |  |  |  |  |  |  |  |  |  | < 1% | < 1% | < 5%
7 | O=C(O)C(=O)C1(C(=O)O)CC1 [2OG derivative 25] | < 1% | < 1% | > 50 µM | < 1% | < 1% | > 50 µM | > 50 µM | 3.3 ± 1 µM |  |  |  |  |  |  |  |  |  |  |  | 
8 | O=C(O)C(=O)c1ccc(C(=O)O)cc1F [2OG derivative 28] | < 1% | ~ 45% | > 50 µM | < 1% | < 1% | > 50 µM | > 50 µM | > 50 µM |  |  |  |  |  |  |  |  |  |  |  | 
9 | O=C(O)C(=O)c1ccc(C(=O)O)s1 [2OG derivative 34] | < 1% | ~ 15% | > 30 µM | < 1% | < 1% | > 50 µM | > 50 µM |  |  |  |  |  |  |  |  |  |  |  |  | 
